Measured values taken from patent publication US7704995B2 (Exelixis, Inc., priority 2003, dated 2010).

Target: T1, Chk1 (Homo sapiens, UniProt O14757)
T1 construct: purchased Upstate Biotechnology
T1 sequence (O14757 1-476): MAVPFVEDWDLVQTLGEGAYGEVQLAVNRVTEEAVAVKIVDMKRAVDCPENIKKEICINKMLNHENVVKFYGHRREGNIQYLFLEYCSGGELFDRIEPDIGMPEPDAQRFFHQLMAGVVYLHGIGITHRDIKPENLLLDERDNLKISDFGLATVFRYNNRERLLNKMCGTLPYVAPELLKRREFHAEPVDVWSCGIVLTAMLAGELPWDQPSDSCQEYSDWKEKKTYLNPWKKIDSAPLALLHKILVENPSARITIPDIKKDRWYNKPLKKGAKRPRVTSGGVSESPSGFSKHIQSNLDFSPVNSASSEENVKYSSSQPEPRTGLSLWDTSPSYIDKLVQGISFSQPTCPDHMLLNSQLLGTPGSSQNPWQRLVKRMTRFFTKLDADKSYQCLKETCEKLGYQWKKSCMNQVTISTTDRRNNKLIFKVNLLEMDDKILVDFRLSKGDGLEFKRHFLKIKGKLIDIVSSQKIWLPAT
Assay: Chk1 kinase assay: incorporation of γ-33P ATP into immobilized myelin basic protein
Type: biochemical
Conditions: read-out: Chk1 IC50
Procedure, shortened: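 Enzyme activity is measured as γ-33P transfer from ATP onto immobilized MBP over 1 h at room temperature, with Chk1 at 10 nM/10 μM unlabeled ATP and Chk2 at 20 nM/30 μM unlabeled ATP. Compounds are tested in 1% DMSO.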

CNC(=O)c1nc(-c2cccc(C(=O)NCc3cc(F)ccc3F)c2)cnc1N [Example 337, 3-amino-6-[3-({[(2,5-difluorophenyl)methyl]amino}carbonyl)phenyl]-N-methylpyrazine-2-carboxamide]
IC50: 50 to 1000 nM

CNC(=O)c1nc(-c2cccc(C(=O)NCc3c(F)cccc3F)c2)cnc1N [Example 338, 3-amino-6-[3-({[(2,6-difluorophenyl)methyl]amino}carbonyl)phenyl]-N-methylpyrazine-2-carboxamide]
IC50: 50 to 1000 nM

CNC(=O)c1nc(-c2cccc(C(=O)NCc3cc(F)cc(F)c3)c2)cnc1N [Example 339, 3-amino-6-[3-({[(3,5-difluorophenyl)methyl]amino}carbonyl)phenyl]-N-methylpyrazine-2-carboxamide]
IC50: < 50 nM

CNC(=O)c1nc(-c2cccc(C(=O)NCc3cccc(I)c3)c2)cnc1N [Example 340, 3-amino-6-[3-({[(3-iodophenyl)methyl]amino}carbonyl)phenyl]-N-methylpyrazine-2-carboxamide]
IC50: < 50 nM

CNC(=O)c1nc(-c2cccc(C(=O)NCc3ccccc3N3CCOCC3)c2)cnc1N [Example 341, 3-amino-N-methyl-6-[3-({[(2-morpholin-4-ylphenyl)methyl]amino}carbonyl)phenyl]pyrazine-2-carboxamide]
IC50: 50 to 1000 nM

CNC(=O)c1nc(-c2cccc(C(=O)NCc3cccc(OCCN4CCOCC4)c3)c2)cnc1N [Example 342, 3-amino-N-methyl-6-(3-{[({3-[(2-morpholin-4-ylethyl)oxy]phenyl}methyl)amino]carbonyl}phenyl)pyrazine-2-carboxamide]
IC50: 50 to 1000 nM

CNC(=O)c1nc(-c2cccc(C(=O)NCc3ccc(N4CCOCC4)cc3)c2)cnc1N [Example 343]
IC50: 50 to 1000 nM

CNC(=O)c1nc(-c2cccc(C(=O)NCc3cccc(N4CCOCC4)c3)c2)cnc1N [Example 344, 3-amino-N-methyl-6-[3-({[(3-morpholin-4-ylphenyl)methyl]amino}carbonyl)phenyl]pyrazine-2-carboxamide]
IC50: 1000 to 10000 nM

CNC(=O)c1nc(-c2cccc(C(=O)NCc3ccc(C(C)C)cc3)c2)cnc1N [Example 345, 3-amino-N-methyl-6-{3-[({[4-(1-methylethyl)phenyl]methyl}amino)carbonyl]phenyl}pyrazine-2-carboxamide]
IC50: 50 to 1000 nM

CNC(=O)c1nc(-c2cccc(CNC(=O)COc3ccc(C(C)C)cc3)c2)cnc1N [Example 346, 3-amino-N-methyl-6-(3-{[({[4-(1-methylethyl)phenyl]oxy}acetyl)amino]methyl}phenyl)pyrazine-2-carboxamide]
IC50: 50 to 1000 nM

CNC(=O)c1nc(-c2cccc(CNC(=O)CSc3ccc(N)cc3)c2)cnc1N [Example 347, 3-amino-6-{3-[({[(4-aminophenyl)thio]acetyl}amino)methyl]phenyl}-N-methylpyrazine-2-carboxamide]
IC50: 50 to 1000 nM

CNC(=O)c1nc(-c2ccc(OC)c(C(=O)NCc3ccccc3)c2)cnc1N [Example 348, 3-amino-N-methyl-6-(4-(methyloxy)-3-{[(phenylmethyl)amino]carbonyl}phenyl)pyrazine-2-carboxamide]
IC50: 50 to 1000 nM

CNC(=O)c1nc(-c2cncc(C(=O)NCc3ccccc3)c2)cnc1N [Example 349, 3-amino-N-methyl-6-(5-{[(phenylmethyl)amino]carbonyl}pyridin-3-yl)pyrazine-2-carboxamide]
IC50: 50 to 1000 nM

CNC(=O)c1nc(-c2cccc(CNC(=O)c3ccc(I)cc3)c2)cnc1N [Example 350, 3-amino-6-[3-({[(4-iodophenyl)carbonyl]amino}methyl)phenyl]-N-methylpyrazine-2-carboxamide]
IC50: < 50 nM

CCCCCc1ccc(C(=O)NCc2cccc(-c3cnc(N)c(C(=O)NC)n3)c2)cc1 [Example 351, 3-amino-N-methyl-6-[3-({[(4-pentylphenyl)carbonyl]amino}methyl)phenyl]pyrazine-2-carboxamide]
IC50: 50 to 1000 nM

CNC(=O)c1nc(-c2cccc(CNC(=O)c3ccc4c(c3)OCO4)c2)cnc1N [Example 352, 3-amino-6-(3-{[(1,3-benzodioxol-5-ylcarbonyl)amino]methyl}phenyl)-N-methylpyrazine-2-carboxamide]
IC50: 50 to 1000 nM

CNC(=O)c1nc(-c2cccc(CNC(=O)C3CCN(c4ncc(C(F)(F)F)cn4)CC3)c2)cnc1N [Example 354, 3-amino-N-methyl-6-(3-{[({1-[5-(trifluoromethyl)pyrimidin-2-yl]piperidin-4-yl}carbonyl)amino]methyl}phenyl)pyrazine-2-carboxamide]
IC50: 50 to 1000 nM

CNC(=O)c1nc(-c2cccc(C(=O)NCc3ccccc3N3CCCCC3)c2)cnc1N [Example 355, 3-amino-N-methyl-6-[3-({[(2-piperidin-1-ylphenyl)methyl]amino}carbonyl)phenyl]pyrazine-2-carboxamide]
IC50: 50 to 1000 nM

CNC(=O)c1nc(-c2cccc(C(=O)NCc3ccccc3SC)c2)cnc1N [Example 356, 3-amino-N-methyl-6-{3-[({[2-(methylthio)phenyl]methyl}amino)carbonyl]phenyl}pyrazine-2-carboxamide]
IC50: < 50 nM

CNC(=O)c1nc(-c2cccc(C(=O)N[C@@H]3CCN(C(=O)OC(C)(C)C)C3)c2)cnc1N [Example 357, 1,1-dimethylethyl (3R)-3-{[(3-{5-amino-6-[(methylamino)carbonyl]pyrazin-2-yl}phenyl)carbonyl]amino}pyrrolidine-1-carboxylate]
IC50: 1000 to 10000 nM

CNC(=O)c1nc(-c2cccc(C(=O)N[C@@H]3CCNC3)c2)cnc1N [Example 358, 3-amino-N-methyl-6-(3-{[(3R)-pyrrolidin-3-ylamino]carbonyl}phenyl)pyrazine-2-carboxamide]
IC50: 1000 to 10000 nM

CNC(=O)c1nc(-c2cccc(C(=O)N[C@@H]3CCN(Cc4ccc(Cl)cc4)C3)c2)cnc1NCc1ccc(Cl)cc1 [Example 359, 3-{[(4-chlorophenyl)methyl]amino}-6-{3-[({(3R)-1-[(4-chlorophenyl)methyl]pyrrolidin-3-yl}amino)carbonyl]phenyl}-N-methylpyrazine-2-carboxamide]
IC50: 50 to 1000 nM

CNC(=O)c1nc(-c2cccc(C(=O)N[C@@H]3CCN(Cc4ccc(Cl)cc4Cl)C3)c2)cnc1N [Example 360, 3-amino-6-{3-[({(3R)-1-[(2,4-dichlorophenyl)methyl]pyrrolidin-3-yl}amino)carbonyl]phenyl}-N-methylpyrazine-2-carboxamide]
IC50: 50 to 1000 nM

CNC(=O)c1nc(-c2cccc(C(=O)N[C@@H]3CCN(Cc4cccc(OC)c4)C3)c2)cnc1NCc1cccc(OC)c1 [Example 361, N-methyl-3-({[3-(methyloxy)phenyl]methyl}amino)-6-(3-{[((3R)-1-{[3-(methyloxy)phenyl]methyl}pyrrolidin-3-yl)amino]carbonyl}phenyl)pyrazine-2-carboxamide]
IC50: 50 to 1000 nM

CNC(=O)c1nc(-c2cccc(C(=O)N[C@@H]3CCN(Cc4c(Cl)cccc4Cl)C3)c2)cnc1N [Example 362, 3-amino-6-{3-[({(3R)-1-[(2,6-dichlorophenyl)methyl]pyrrolidin-3-yl}amino)carbonyl]phenyl}-N-methylpyrazine-2-carboxamide]
IC50: 50 to 1000 nM

CNC(=O)c1nc(-c2cccc(C(=O)N[C@@H]3CCN(Cc4ccccc4)C3)c2)cnc1NCc1ccccc1 [Example 363, N-methyl-3-[(phenylmethyl)amino]-6-[3-({[(3R)-1-(phenylmethyl)pyrrolidin-3-yl]amino}carbonyl)phenyl]pyrazine-2-carboxamide]
IC50: 50 to 1000 nM

CNC(=O)c1nc(-c2cccc(C(=O)NCC3CCN(C(=O)OC(C)(C)C)C3)c2)cnc1N (centres unmarked) [Example 364, 1,1-dimethylethyl 3-({[(3-{5-amino-6-[(methylamino)carbonyl]pyrazin-2-yl}phenyl)carbonyl]amino}methyl)pyrrolidine-1-carboxylate]
IC50: 50 to 1000 nM

CNC(=O)c1nc(-c2cccc(C(=O)NCC3CCCN3C(=O)OC(C)(C)C)c2)cnc1N (centres unmarked) [Example 365, 1,1-dimethylethyl 2-({[(3-{5-amino-6-[(methylamino)carbonyl]pyrazin-2-yl}phenyl)carbonyl]amino}methyl)pyrrolidine-1-carboxylate]
IC50: 1000 to 10000 nM

CNC(=O)c1nc(-c2cccc(C(=O)NCC3CCNC3)c2)cnc1N (centres unmarked) [Example 366, 3-amino-N-methyl-6-(3-{[(pyrrolidin-3-ylmethyl)amino]carbonyl}phenyl)pyrazine-2-carboxamide]
IC50: 50 to 1000 nM

CNC(=O)c1nc(-c2cccc(C(=O)NCC3CCCN3)c2)cnc1N (centres unmarked) [Example 367, 3-amino-N-methyl-6-(3-{[(pyrrolidin-2-ylmethyl)amino]carbonyl}phenyl)pyrazine-2-carboxamide]
IC50: 50 to 1000 nM

CNC(=O)c1nc(-c2cc(C(=O)NCc3ccccc3)ccc2F)cnc1N [Example 368, 3-amino-6-(2-fluoro-5-{[(phenylmethyl)amino]carbonyl}phenyl)-N-methylpyrazine-2-carboxamide]
IC50: 50 to 1000 nM

CNC(=O)c1nc(-c2cccc(NC(=O)Cc3ccc4c(c3)OCO4)c2)cnc1N [Example 369, 3-amino-6-{3-[(1,3-benzodioxol-5-ylacetyl)amino]phenyl}-N-methylpyrazine-2-carboxamide]
IC50: 50 to 1000 nM
